{"source": "paper PMC2920882", "about": "(BMC Cancer, 2010)", "key": {"VEGFR2": {"molecular_target": "T1, VEGFR2 (Homo sapiens, UniProt P35968)", "T1 construct": "purchased R&D Systems", "T1 sequence (P35968 20-1356)": "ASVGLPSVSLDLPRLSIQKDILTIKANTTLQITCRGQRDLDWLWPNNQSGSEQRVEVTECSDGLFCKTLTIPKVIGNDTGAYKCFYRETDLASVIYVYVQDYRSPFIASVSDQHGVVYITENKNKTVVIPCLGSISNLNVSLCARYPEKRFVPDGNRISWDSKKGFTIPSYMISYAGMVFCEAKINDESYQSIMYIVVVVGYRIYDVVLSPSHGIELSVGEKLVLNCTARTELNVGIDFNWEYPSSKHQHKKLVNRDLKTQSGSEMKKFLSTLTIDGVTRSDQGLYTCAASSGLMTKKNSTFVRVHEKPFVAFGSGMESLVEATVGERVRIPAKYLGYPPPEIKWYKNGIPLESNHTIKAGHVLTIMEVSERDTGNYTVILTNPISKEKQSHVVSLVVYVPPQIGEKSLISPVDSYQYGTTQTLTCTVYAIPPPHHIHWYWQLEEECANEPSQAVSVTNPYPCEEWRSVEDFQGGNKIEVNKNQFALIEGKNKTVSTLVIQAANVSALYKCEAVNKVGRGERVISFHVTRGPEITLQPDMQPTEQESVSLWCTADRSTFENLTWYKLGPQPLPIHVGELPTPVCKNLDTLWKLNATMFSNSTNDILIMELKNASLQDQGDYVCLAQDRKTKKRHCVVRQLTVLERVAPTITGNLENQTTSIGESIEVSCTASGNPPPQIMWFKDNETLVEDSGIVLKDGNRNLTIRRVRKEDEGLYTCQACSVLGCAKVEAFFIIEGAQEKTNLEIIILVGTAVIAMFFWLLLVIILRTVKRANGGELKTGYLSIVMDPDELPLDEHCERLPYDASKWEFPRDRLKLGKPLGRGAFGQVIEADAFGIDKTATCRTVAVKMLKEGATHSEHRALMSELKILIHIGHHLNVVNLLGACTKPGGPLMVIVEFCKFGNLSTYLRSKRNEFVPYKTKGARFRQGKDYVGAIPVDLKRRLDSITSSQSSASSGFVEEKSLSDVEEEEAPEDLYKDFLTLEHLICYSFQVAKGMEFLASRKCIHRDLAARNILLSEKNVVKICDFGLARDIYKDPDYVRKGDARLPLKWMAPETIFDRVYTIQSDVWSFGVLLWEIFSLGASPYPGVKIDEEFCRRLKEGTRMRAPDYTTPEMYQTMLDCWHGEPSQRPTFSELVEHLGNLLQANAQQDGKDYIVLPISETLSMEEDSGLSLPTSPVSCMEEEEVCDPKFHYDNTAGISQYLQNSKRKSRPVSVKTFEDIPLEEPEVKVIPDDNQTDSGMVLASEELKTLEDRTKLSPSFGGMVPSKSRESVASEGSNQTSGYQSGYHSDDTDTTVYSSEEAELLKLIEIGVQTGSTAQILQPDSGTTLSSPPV", "experiment": "Fluorescence-based ELISA, VEGFR2 binding", "conditions": "vs GU40C4 (ref 12)", "protocol": "Wells were washed with 5 × 200 μL of PBS and fluorescence was measured at 520 nm using a plate reader (Fluostar Optima, BMG Laboratories, Durham, NC)."}, "VEGFR2 (PAE-KDR cells)": {"molecular_target": "T2, VEGFR2 (PAE-KDR cells) (Homo sapiens, UniProt P35968)", "T2 construct": "host or cells: PAE-KDR cells", "T2 sequence (P35968 20-1356)": "as above", "experiment": "VEGFR2 autophosphorylation assay, PAE-KDR cells", "format": "cell-based", "protocol": "Experiments were conducted using PAE-KDR (Sibtech Inc., Brookfield, CT) and HUVEC (Sciencecell, Carlsbad, CA) cells. […] Cells were harvested with lysis buffer, and lysates were separated by SDS-PAGE and transferred to PVDF membranes. Membranes were probed with anti phospho-VEGF receptor 2 (Tyr1175, 19A10) or total anti-VEGFR2 primary antibodies (Cell Signaling Technology, Danvers, MA) and subsequently developed with appropriate HRP-conjugated secondary antibody (BioRad Laboratories, Hercules, CA) followed by enhanced chemiluminescent detection (Pierce)."}, "Met-1 cells [1]": {"test_system": "Met-1 cells", "conditions": "2.5 μM GU81, 72 hours, serum-free DMEM, p < 0.05 vs SFM, 1-way ANOVA", "protocol": "Tumor-conditioned media (TCM) was collected and RNA harvested using TRIzol (Invitrogen) according to the manufacturer's directions at 24, 48, and 72 hours post-treatment. The quality of RNA was evaluated using spectrophotometry. The cDNA used for subsequent PCR was made using iScript (Bio-Rad Laboratories). The expression of VEGF was analyzed by quantitative real-time PCR using assay on demand from Applied Biosystems (Mm00437308_m1). […] Quantitative real-time PCR was performed in a reaction volume of 20 μL of cDNA and each reaction was performed in triplicate. We used the comparative Ct method to compute relative expression values. TCM was diluted 1:5 prior to analysis for VEGF concentration using the Quantikine Mouse VEGF Immunoassay (R&D Systems).\nResults are expressed as mean ± SEM."}, "HUVEC": {"test_system": "HUVEC", "conditions": "when compared to GU40C4"}, "Met-1 cells [2]": {"test_system": "Met-1 cells", "conditions": "GU81 treatment, mRNA and protein"}, "MMTV-PyMT tumors [3]": {"test_system": "MMTV-PyMT tumors", "conditions": "cited from earlier work", "description": "Macrophage infiltration is associated with poor prognosis in a number of different tumor types, including breast cancer. […] This increase in macrophage infiltration is puzzling ..."}, "[4]": {"test_system": "MMTV-PyMT transgenic model of breast cancer", "conditions": "cited from earlier work"}, "[5]": {"test_system": "4T1 syngenic breast cancer model", "conditions": "4T1 syngeneic model; cited from earlier work"}, "MMTV-PyMT tumors [6]": {"test_system": "MMTV-PyMT tumors", "experiment": "Tumor VEGF immunohistochemistry", "conditions": "percent VEGF positive area, vs control, p ≤ 0.05 for GU81 alone, t-test; 3 animals/group, 5 sections/animal"}, "MMTV-PyMT tumors [7]": {"test_system": "MMTV-PyMT tumors", "experiment": "H&E histology of MMTV-PyMT tumors", "conditions": "formalin-fixed tumors after 19 days treatment"}, "MMTV-PyMT tumors [8]": {"test_system": "MMTV-PyMT tumors", "experiment": "F4/80 macrophage infiltration immunohistochemistry", "conditions": "percent F4/80 positive area, p ≤ 0.05 vs control, t-test; 3 animals/group, 5 sections/animal"}, "MMTV-PyMT tumors [9]": {"test_system": "MMTV-PyMT tumors", "experiment": "Endomucin immunohistochemistry (vessel number, vascular area, vessel size)"}, "[10]": {"test_system": "MMTV-PyMT transgenic model of breast cancer", "experiment": "MMTV-PyMT breast cancer therapy study: tumor volume, tumor weight, efficacy", "conditions": "for tumor volume vs control: MMTV-PyMT mice, 19 days from age 6 weeks, GU81 260 μg/day osmotic pump, doxorubicin 2 mg/kg once weekly, 2-way ANOVA; for total tumor weight vs control: at sacrifice (age 60 days), p ≤ 0.01 for combination, 1-way ANOVA"}, "MMTV-PyMT tumors [11]": {"test_system": "MMTV-PyMT tumors", "experiment": "Perilipin and adiponectin immunohistochemistry of MMTV-PyMT tumors (tumor fat content)", "conditions": "for tumor fat content (residual adipose tissue): MMTV-PyMT tumors after 19 days treatment, H&E and adipocyte markers"}, "MMTV-PyMT tumors [12]": {"test_system": "MMTV-PyMT tumors"}}, "note": "“Also recorded” adds a separate entry of the source. Numbered stars: 1 amine (or outer) side, 2 acyl side, 3 side chain; on linkers, the order of the positions; unused ones are H or OH. Bridge positions count the residues as written; N and C are the ends. Square brackets hold non-standard residues; d marks the D form. Peptide text beside a SMILES is read from it. I, II: the chains in the order shown. Gly(N-piperonyl) = O=C(O)CNCc1ccc2c(c1)OCO2; X1 = CC(CN(CC(=O)[*:2])[*:1])c1ccccc1; Nleu = CC(C)CNCC(=O)O; Nlys = NCCCCNCC(=O)O; Ahx = NCCCCCC(=O)O; Nme = COCCNCC(=O)O; βAla = NCCC(=O)O", "data": [{"compound": "COCCN(CC(=O)N(CC(=O)N(CC(=O)N(CCCCN)CC(=O)N(CC(=O)N(CCCCN)CC(=O)N(CCCCN)CC(=O)NCCCCCC(=O)NCCC(=O)N[C@@H](CCCCNC(=O)CN(CCCCN)C(=O)CN(CCCCN)C(=O)CN(CC(C)C)C(=O)CN(CCCCN)C(=O)CN(Cc1ccc2c(c1)OCO2)C(=O)CN(CC(C)c1ccccc1)C(=O)CN(CCOC)C(=O)CN(CC(C)C)C(=O)CNCCCCN)C(N)=O)CC(C)C)Cc1ccc2c(c1)OCO2)CC(C)c1ccccc1)C(=O)CN(CC(C)C)C(=O)CNCCCCN", "note": "(stereo partly drawn) [GU81] (I: H-[Nlys][Nleu][Nme][X1][Gly(N-piperonyl)][Nlys][Nleu][Nlys][Nlys][Ahx][βAla]K-NH2 / II: H-[Nlys][Nleu][Nme][X1][Gly(N-piperonyl)][Nlys][Nleu][Nlys][Nlys]; amide I:12-II:C)", "values": [{"measurement": "improvement of KD over the original GU40C4", "setting": "VEGFR2", "result": "3 -fold"}, {"measurement": "block of VEGF-induced VEGFR2 phosphorylation", "setting": "VEGFR2 (PAE-KDR cells); PAE-KDR cells, increasing concentrations of GU81 15 min, VEGF 1.3 nM 7 min, 37°C, Western blot", "result": "effectively blocks VEGF-induced VEGFR2 phosphorylation of PAE-KDR cells in a dose-dependent manner"}, {"measurement": "in vitro efficacy", "setting": "VEGFR2 (PAE-KDR cells); abstract: compared to GU40C4, discussion: in vitro biological efficacy", "result": "increased in vitro efficacy compared to GU40C4; also recorded: potent in vitro biological efficacy"}, {"measurement": "VEGF mRNA level in Met-1 cells", "setting": "Met-1 cells [1]", "result": "significantly increased after 72 hours of GU81 treatment; also recorded: significant increase in VEGF gene transcription following 72 hrs of GU81 treatment"}, {"measurement": "expected inhibition of endothelial cell proliferation", "setting": "HUVEC", "result": "more potent inhibitor of endothelial cell proliferation when compared to GU40C4"}, {"measurement": "VEGF expression in Met-1 cells (discussion)", "setting": "Met-1 cells [2]", "result": "increased VEGF expression following treatment with GU81"}, {"measurement": "macrophage infiltration, single agent", "setting": "MMTV-PyMT tumors [3]", "result": "increases macrophage infiltration as a single-agent"}, {"measurement": "in vivo efficacy as a single agent, MMTV-PyMT model", "setting": "[4]", "result": "does not demonstrate in vivo efficacy as a single agent in the MMTV-PyMT model of breast cancer"}, {"measurement": "tumor size, 4T1 model, single agent", "setting": "[5]", "result": "effectively reduces tumor size and MVD"}, {"measurement": "tumor VEGF level", "setting": "MMTV-PyMT tumors [6]", "result": "increased tumor-VEGF levels and macrophage infiltration; also recorded: significantly increased levels of VEGF compared to tumors from control-treated mice; also recorded: increased tumor VEGF expression in this model"}, {"measurement": "tumor histology / progression / invasion", "setting": "MMTV-PyMT tumors [7]", "result": "no effect on tumor weight, histology, tumor fat content, or tumor growth index; also recorded: did not alter this histology"}, {"measurement": "tumor histology / progression / invasion", "setting": "MMTV-PyMT tumors [7]; listed as GUI81", "result": "clearly invasive adenocarcinomas"}, {"measurement": "macrophage infiltration vs control", "setting": "MMTV-PyMT tumors [8]", "result": "increased tumor-VEGF levels and macrophage infiltration; also recorded: significantly increased following treatment with GU81; also recorded: induces macrophage infiltration in vivo"}, {"measurement": "total vessel number", "setting": "MMTV-PyMT tumors [9]; endomucin, vessels per 200× field, 3 animals/group, 5 sections/animal", "result": "no effect on total vessel number; also recorded: do not see a decrease in vessel number"}, {"measurement": "total vascular area, GU81 alone", "setting": "MMTV-PyMT tumors [9]; percent endomucin positive area per 200× field, vs control, p < 0.001, t-test", "result": "able to significantly to reduce total vascular area as a single agent; also recorded: decreased total vascular area; also recorded: reduces total vascular area and vessel size; also recorded: decrease in total vascular area and vessel size"}, {"measurement": "vessel size", "setting": "MMTV-PyMT tumors [9]; percent fluorescent area divided by total vessel number, vs control, t-test", "result": "reduces total vascular area and vessel size; also recorded: decrease in total vascular area and vessel size"}, {"measurement": "therapeutic efficacy in MMTV-PyMT model", "setting": "[10]; GU81 260 μg/day alone or with doxorubicin 2 mg/kg once weekly, 19 days", "result": "little therapeutic efficacy when used alone; also recorded: not effective as a single agent in the MMTV-PyMT model of breast cancer"}, {"measurement": "tumor volume vs control", "setting": "[10]", "result": "did not have a significant effect on either tumor volume or tumor weight"}, {"measurement": "total tumor weight vs control", "setting": "[10]", "result": "no effect on tumor weight, histology, tumor fat content, or tumor growth index; also recorded: did not have a significant effect on either tumor volume or tumor weight"}, {"measurement": "tumor fat content (residual adipose tissue)", "setting": "MMTV-PyMT tumors [11]", "result": "no effect on tumor weight, histology, tumor fat content, or tumor growth index"}]}, {"compound": "COc1cccc2c1C(=O)c1c(O)c3c(c(O)c1C2=O)C[C@@](O)(C(=O)CO)C[C@@H]3O[C@H]1C[C@H](N)[C@H](O)[C@H](C)O1", "note": "[doxorubicin, reference compound]", "values": [{"measurement": "cytostatic / cytocidal character of the therapy", "setting": "MMTV-PyMT tumors [12]; from proliferation, apoptosis and growth index", "result": "cytostatic"}, {"measurement": "tumor growth index vs control", "setting": "MMTV-PyMT tumors [12]; phospho-histone-3 / cleaved caspase-3 positive cells per 200× field, vs control, p ≤ 0.05 for combination, 1-way ANOVA", "result": "no effect on tumor weight, histology, tumor fat content, or tumor growth index"}, {"measurement": "phospho-histone-3 positive cells (proliferation) vs control", "setting": "MMTV-PyMT tumors [12]; vs control, p ≤ 0.01 (doxorubicin, combination), 1-way ANOVA, 3 animals/group, 5 sections/animal", "result": "fewer phospho-histone-3 positive cells when compared to tumors from control treated animals"}, {"measurement": "cleaved (active) caspase-3 positive cells (apoptosis) vs control", "setting": "MMTV-PyMT tumors [12]; vs control, p ≤ 0.05 (doxorubicin), 1-way ANOVA, 3 animals/group, 5 sections/animal", "result": "significantly fewer active caspase-3 positive cells when compared to tumors from control-treated animals"}, {"measurement": "tumor VEGF level", "setting": "MMTV-PyMT tumors [6]", "result": "neither treatment with doxorubicin alone or in combination with GU81 had significant effects on VEGF expression"}, {"measurement": "tumor histology / progression / invasion", "setting": "MMTV-PyMT tumors [7]", "result": "no effect on tumor weight, histology, tumor fat content, or tumor growth index; also recorded: displayed areas of invasive carcinoma; although the invasive component of the tumor was reduced when compared to control and GU81-treated animals; also recorded: clearly invasive adenocarcinomas"}, {"measurement": "tumor volume vs control", "setting": "[10]", "result": "significantly reduced tumor volume compared to control treated animals"}, {"measurement": "total tumor weight vs control", "setting": "[10]", "result": "no effect on tumor weight, histology, tumor fat content, or tumor growth index"}, {"measurement": "adiponectin staining vs control", "setting": "MMTV-PyMT tumors [11]; Cy3 positive area, vs control, p≤0.05, t-test", "result": "significantly increased"}, {"measurement": "tumor fat content (residual adipose tissue)", "setting": "MMTV-PyMT tumors [11]", "result": "no effect on tumor weight, histology, tumor fat content, or tumor growth index"}]}]}
